Series [1] concerns primate. The settings on record: Chronic toxicity, macaque, Oral, Gavage/Intubation, dose end: 52 week, group: systemic.
For series [2], the system named is rat. The following applies: Subchronic dermal toxicity, sprague dawley, Topical, dose end: 90 day, group: systemic.
The test system of series [3] is rat. The following applies: Combined chronic toxicity/carcinogenicity, sprague dawley, Oral, Gavage/Intubation, dose end: 104 week, group: systemic.
Series [4] deals with mouse. The following applies: Carcinogenicity, cd1, Dermal, Topical, dose end: 18 month, group: systemic.
The subject of series [5] is rat. The following applies: Multigenerational reproductive toxicity study, sprague dawley, Oral, Gavage/Intubation, dose end: 2 generation.
Series [6] deals with rat. The following applies: Subchronic oral toxicity in rodents, sprague dawley, Gavage/Intubation, dose end: 13 week, group: systemic.
Series [7] deals with rat. The following applies: Subchronic oral toxicity in rodents, sprague dawley, Water, dose end: 90 day, group: systemic.
Series [8] relates to mouse. The settings on record: Combined chronic toxicity/carcinogenicity, b6c3f1, Oral, Water, dose end: 52 week, group: systemic.
Series [9] relates to mouse. The following applies: Subchronic oral toxicity in rodents, cd1, Feed, dose end: 13 week, group: systemic.
Series [10] concerns rat. The following applies: Multigenerational reproductive toxicity study, wistar, Oral, Feed, dose end: 2 generation.
The test system of series [11] is mouse. The following applies: Carcinogenicity, cd1, Oral, Feed, dose end: 18 month, group: systemic.
Series [12] deals with dog. The following applies: Subchronic oral toxicity in nonrodent, beagle, Feed, dose end: 14 week, group: systemic.
Series [13] relates to dog. The following applies: Chronic toxicity; beagle; Oral; Feed; dose end: 52 week; group: systemic; systemic / organ weight / adrenal gland / relative to body weight + systemic / organ weight / testes / relative to body weight + systemic / ….
For series [14], the system named is rat. The settings on record: Subchronic oral toxicity in rodents, wistar, Feed, dose end: 14 week, group: systemic.
In series [15] the test system is rat. The following applies: Subchronic oral toxicity in rodents, wistar, Feed, dose end: 13 week, group: systemic, systemic / clinical chemistry / alanine aminotransferase (alt/sgpt) / alanine aminotransferase (alt/sgpt) + systemic / clinical chemistry / ….
Series [16] relates to rat. The settings on record: Combined chronic toxicity/carcinogenicity, wistar, Oral, Feed, dose end: 120 week, group: systemic.
The mark [17] stands for this setting: systemic / in life observation / body weight / body weight + systemic / in life observation / clinical signs / emesis.
[18] abbreviates: systemic / pathology microscopic / skeletal muscle / atrophy.
[19] abbreviates: systemic / pathology microscopic / skeletal muscle / atrophy + systemic / in life observation / body weight / body weight + systemic / in ….
Setting [20] is: systemic / pathology microscopic / skeletal muscle / degeneration.
The mark [21] stands for this setting: systemic / pathology microscopic / skeletal muscle / degeneration + systemic / in life observation / body weight / body weight + systemic / ….
[22] abbreviates: systemic / in life observation / body weight / body weight + systemic / in life observation / clinical signs / abnormal movements + systemic….
The mark [23] stands for this setting: group: offspring, developmental / developmental landmark / eye opening / eye opening + developmental / developmental landmark / pinna unfolding / pinna ….
[24] abbreviates: group: parental, systemic / in life observation / clinical signs / salivation.
Setting [25] is: group: reproductive, reproductive / offspring survival early / litter size / litter size.
The mark [26] stands for this setting: systemic / in life observation / water consumption / water consumption + systemic / organ weight / kidney / relative to body weight + ….
[27] abbreviates: systemic / organ weight / spleen / absolute + systemic / pathology microscopic / liver / hypertrophy.
Setting [28] is: systemic / organ weight / liver / absolute + systemic / organ weight / liver / relative to body weight + systemic / pathology microscopic / ….
The mark [29] stands for this setting: systemic / pathology microscopic / liver / adenoma + systemic / pathology microscopic / liver / hepatocellular carcinoma + systemic / organ ….
Setting [30] is: systemic / pathology microscopic / liver / hypertrophy + systemic / pathology microscopic / testes / hypertrophy.
[31] abbreviates: systemic / pathology microscopic / liver / hypertrophy + systemic / pathology microscopic / testes / hypertrophy + systemic / clinical ….
Where [32] appears, read: group: offspring, systemic / in life observation / body weight / offspring (pup) weight + systemic / in life observation / body weight / offspring (pup) ….
Setting [33] is: group: parental, systemic / organ weight / liver / absolute + systemic / organ weight / liver / relative to body weight.
Where [34] appears, read: systemic / organ weight / adrenal gland / nos + systemic / organ weight / kidney / absolute + systemic / organ weight / kidney / relative to….
Where [35] appears, read: systemic / pathology microscopic / adrenal gland / pigmentation.
[36] abbreviates: systemic / clinical chemistry / alderin epoxidase / alderin epoxidase + systemic / clinical chemistry / ethoxycoumarin deethylase / ….
Setting [37] is: systemic / organ weight / adrenal gland / relative to body weight + systemic / pathology microscopic / adrenal gland / vacuolization ….
[38] abbreviates: systemic / clinical chemistry / thyroid stimulating hormone (thyrotropin) (tsh) / thyroid stimulating hormone (=thyrotropin) (tsh).
[39] abbreviates: systemic / clinical chemistry / alanine aminotransferase (alt/sgpt) / alanine aminotransferase (alt/sgpt) + systemic / clinical chemistry / ….
[40] abbreviates: systemic / pathology microscopic / liver / basophilic focus.

The structures appear in SMILES notation.

With `[Na+].[O-]n1ccccc1=S` [Sodium pyrithione], the LEL amounted to 5 mg/kg/day in [1] (setting [17]); 15 mg/kg/day in series [2] (systemic / pathology microscopic / skeletal muscle / atrophy + systemic / pathology gross / skeletal muscle / reduced size); 1.5 mg/kg/day in [3] (setting [20]); 2 mg/kg/day in [4] (setting [22]); 3.5 mg/kg/day in series [5] (setting [23]); 0.5 mg/kg/day in series [5] (setting [24]). Moreover, the LEL in [5] (group: reproductive, reproductive / offspring survival early / litter size / litter size + reproductive / reproductive performance / fertility / fertility + …) is 3.5 mg/kg/day; in series [6] (setting [18]) it was 2 mg/kg/day. In addition, the LOAEL worked out at 25 mg/kg/day in series [1] (setting [17]); 15 mg/kg/day in series [2] (setting [18]); 1.5 mg/kg/day in series [3] (setting [20]); 20 mg/kg/day in series [4] (systemic / in life observation / mortality / mortality + systemic / pathology microscopic / liver / hypertrophy); 3.5 mg/kg/day in series [5] (setting [23]); 1.5 mg/kg/day in [5] (group: parental, systemic / pathology microscopic / skeletal muscle / atrophy). For the same compound, the LOAEL is 3.5 mg/kg/day in series [5] (setting [25]) and 2 mg/kg/day in [6] (setting [18]). The NEL in series [1] (setting [17]) was less than 5 mg/kg/day; in [2] (setting [19]), 5 mg/kg/day; in series [3] (setting [21]) it was 0.5 mg/kg/day; in series [4] (setting [22]), less than 2 mg/kg/day; in [5] (setting [23]), 1.5 mg/kg/day; in [5] (setting [24]), less than 0.5 mg/kg/day. The figures for the NEL in [5] (setting [25]) and in series [6] (setting [19]) were 1.5 mg/kg/day and 0.5 mg/kg/day, respectively. Further, the NOAEL in [1] (systemic / in life observation / body weight / body weight + systemic / in life observation / clinical signs / emesis + systemic / in life …) was determined as 5 mg/kg/day; in series [2] (setting [19]), 5 mg/kg/day; in [3] (setting [21]), 0.5 mg/kg/day; in series [4] (systemic / in life observation / mortality / mortality + systemic / pathology microscopic / lymph node / lymphoma malignant + systemic / in …) it was 2 mg/kg/day; in [5] (setting [23]), 1.5 mg/kg/day; in series [5] (group: parental, systemic / pathology microscopic / skeletal muscle / atrophy + systemic / in life observation / body weight / body weight + systemic / in …), 0.5 mg/kg/day. Besides, the NOAEL amounted to 1.5 mg/kg/day in series [5] (setting [25]) and 0.5 mg/kg/day in series [6] (setting [19]).

For the compound `O=C([O-])C(Cl)(Cl)Cl.[Na+]` [Sodium trichloroacetate], the LOAEL was more than 355 mg/kg/day in [7] (setting [26]) and more than 267 mg/kg/day in series [8] (setting [28]). Moreover, the NOAEL in series [7] (setting [26]) was not below 355 mg/kg/day; in series [8] (setting [28]) it was not below 267 mg/kg/day. The LEL was found to be 4.1 mg/kg/day in [7] (setting [27]) and 133 mg/kg/day in series [8] (setting [29]). Besides, the NEL in [7] (setting [27]) was less than 4.1 mg/kg/day; in [8] (setting [29]), less than 133 mg/kg/day.

Take `CCC(C)(C)C(=O)OC1=C(c2ccc(Cl)cc2Cl)C(=O)OC12CCCCC2` [Spirodiclofen]: the LEL was 164 mg/kg/day in series [9] (setting [30]); 30.2 mg/kg/day in series [10] (setting [32]); 5.2 mg/kg/day in series [10] (setting [33]); 5.1 mg/kg/day in series [11] (setting [35]); 7.7 mg/kg/day in series [12] (setting [36]); 4.33 mg/kg/day in [13]. In series [14] (setting [38]), this compound gave an LEL of 8.1 mg/kg/day. For the same compound, the LOAEL in series [9] (setting [30]) worked out at 164 mg/kg/day; in series [10] (setting [32]) it was 30.2 mg/kg/day; in [10] (group: parental, systemic / in life observation / body weight / body weight + systemic / organ weight / liver / absolute), 26.2 mg/kg/day; in series [11] (setting [34]), 610 mg/kg/day; in [12] (setting [37]), 8.4 mg/kg/day; in [13], 4.33 mg/kg/day. This compound had an LOAEL in series [14] (systemic / pathology microscopic / adrenal gland / vacuolization cytoplasmic) of 47.1 mg/kg/day. In addition, the NEL was 15 mg/kg/day in series [9] (setting [31]); 6.4 mg/kg/day in [10] (setting [32]); less than 5.2 mg/kg/day in series [10] (setting [33]); less than 5.1 mg/kg/day in [11] (setting [35]); less than 7.7 mg/kg/day in [12] (setting [36]); 1.38 mg/kg/day in [13]. In series [14] (setting [38]), this compound registered an NEL of less than 8.1 mg/kg/day. Moreover, the no-observed-adverse-effect level (NOAEL) in [9] (setting [31]) is 15 mg/kg/day; in [10] (setting [32]) it was 6.4 mg/kg/day; in [10] (group: parental, systemic / in life observation / body weight / body weight + systemic / organ weight / liver / absolute + systemic / in life observation / …), 5.2 mg/kg/day; in [11] (setting [34]), 4.1 mg/kg/day; in series [12] (setting [37]) it was less than 8.4 mg/kg/day; in [13], 1.38 mg/kg/day. For the same compound, the NOAEL in series [14] (systemic / pathology microscopic / adrenal gland / vacuolization cytoplasmic + systemic / clinical chemistry / alanine aminotransferase (alt…) amounted to 8.1 mg/kg/day.

`O=C(NC(=O)c1c(F)cccc1F)Nc1cc(Cl)c(F)c(Cl)c1F` [Teflubenzuron]: in series [15], the LEL is 81.6 mg/kg/day, the LOAEL was 81.6 mg/kg/day, the NEL is 8 mg/kg/day and the NOAEL was found to be 8 mg/kg/day. Further, in series [16] (setting [39]), the LOAEL worked out at 26 mg/kg/day and the NOAEL is 5.1 mg/kg/day. Moreover, in series [16] (setting [40]), the LEL turned out to be 1.3 mg/kg/day and the NEL is less than 1.3 mg/kg/day.

The values above are taken from EPA's ToxRefDB 2.
